A short description of series [1]: Microsomal stability assay, liver microsome half-life (human). It counts as in vitro ADME. To be noted: pH 7.4; human liver microsomes 0.5 mg/mL, 1 μM compound, 37° C.; read-out: Liver microsome T1/2 Human. From the text:
(§1) Microsomal Stability Assay: Microsomal stability assay is a widely used in vitro model to characterize the metabolic conversion by phase I enzymes, such as cytochrome P450 (CYP) enzymes. Since metabolism is known to be highly variable in different species, microsomal stability assay is commonly run in multiple species. Metabolic stability of testing compound can be evaluated using human, rat, mouse, or other animal liver or intestine microsomes to predict intrinsic clearance.
(§2) The assay was carried out in 96-well microtiter plates at 37° C. Reaction mixtures (25 μL) contained a final concentration of 1 μM test compound, 0.5 mg/mL liver microsomes protein, and 1 mM NADPH and/or 1 mM UDPGA (with alamethicin) in 100 mM potassium phosphate, pH 7.4 buffer with 3 mM MgCl2. The incubation was done with N=1, but duplicate incubation at each time point can be prepared if necessary. At each of the time points (for example, 0, 15, 30, and 60 minutes), 150 μL of quench solution (100% acetonitrile with 0.1% formic acid) with internal standard was transferred to each well. Besides the zero minute controls, mixtures containing the same components except the NADPH can also be prepared as the negative control. Verapamil was included as a positive control to verify assay performance. Plates were sealed, vortexed, and centrifuged at 4° C. for 15 minutes at 4000 rpm. The supernatant is transferred to fresh plates for LC/MS/MS analysis.
(§3) Summarized conditions: [Compound]=1 μM, [LM]=0.5 mg/mL, [NADPH]=1 mM and/or [UDPGA]=1 mM, Buffer=100 mM Potassium Phosphate, pH 7.4 with 3 mM MgCl2, Time=0, 15, 30, and 60 min, and Temperature=37° C.
(§4) All samples were analyzed on LC/MS/MS using an AB Sciex API 4000 instrument, coupled to a Shimadzu LC-20AD LC Pump system. Analytical samples were separated using a Waters Atlantis T3 dC18 reverse phase HPLC column (20 mm×2.1 mm) at a flow rate of 0.5 mL/min. The mobile phase consisted of 0.1% formic acid in water (solvent A) and 0.1% formic acid in 100% acetonitrile (solvent B).
(§5) The extent of metabolism is calculated as the disappearance of the test compound, compared to the 0-min time incubation. Initial rates are calculated for the compound concentration and used to determine half-life (t½). […]
(In general: Microsomes from liver hold many membrane-bound enzymes, among them those of drug oxidation.)

A further series deals with T1, androgen receptor (AR) (Homo sapiens, UniProt P10275, T878A).
T1 sequence (P10275 1-920 T878A): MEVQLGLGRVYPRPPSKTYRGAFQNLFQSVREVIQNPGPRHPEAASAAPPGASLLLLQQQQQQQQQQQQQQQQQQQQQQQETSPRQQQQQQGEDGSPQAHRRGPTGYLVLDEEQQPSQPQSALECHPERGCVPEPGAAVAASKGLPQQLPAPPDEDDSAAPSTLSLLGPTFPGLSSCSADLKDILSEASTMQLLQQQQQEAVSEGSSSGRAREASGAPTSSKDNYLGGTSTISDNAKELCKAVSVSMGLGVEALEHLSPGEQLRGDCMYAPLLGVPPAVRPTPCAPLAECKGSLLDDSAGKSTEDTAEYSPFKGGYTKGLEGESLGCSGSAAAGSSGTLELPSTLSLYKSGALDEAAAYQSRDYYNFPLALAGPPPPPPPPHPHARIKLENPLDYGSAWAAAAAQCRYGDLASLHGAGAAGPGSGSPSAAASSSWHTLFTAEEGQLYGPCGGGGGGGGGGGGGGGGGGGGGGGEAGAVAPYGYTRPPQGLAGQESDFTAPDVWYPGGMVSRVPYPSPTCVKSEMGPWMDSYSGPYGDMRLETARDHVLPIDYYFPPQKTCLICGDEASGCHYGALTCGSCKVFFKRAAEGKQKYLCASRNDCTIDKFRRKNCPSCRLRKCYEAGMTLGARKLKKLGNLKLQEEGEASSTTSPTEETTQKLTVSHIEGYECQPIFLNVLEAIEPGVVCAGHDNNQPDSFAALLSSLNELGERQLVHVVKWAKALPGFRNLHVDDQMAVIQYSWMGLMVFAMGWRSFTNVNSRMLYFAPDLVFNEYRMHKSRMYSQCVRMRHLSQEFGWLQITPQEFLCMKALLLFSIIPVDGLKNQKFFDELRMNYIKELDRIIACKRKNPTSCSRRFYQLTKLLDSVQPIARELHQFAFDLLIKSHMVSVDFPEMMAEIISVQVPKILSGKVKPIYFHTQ
Nature of the series: Androgen-induced PSA (6.1 kb)-luciferase reporter assay in LNCaP cells (R1881 1 nM). To be noted: 24 h, read-out: PSA-Luc IC50 Range. More on the design: endogenous in cells; host or cells: LNCaP. It counts as cell-based. Put shortly:
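Compound or vehicle was added 1 h before 1 nM R1881 to LNCaP cells carrying a transiently transfected (24 h) PSA (6.1 kb)-luciferase reporter. After 24 h androgen exposure, lysate luminescence was normalized to protein and expressed versus vehicle plus R1881 for IC50.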

Series [2] in a line: Microsomal stability assay, liver microsome half-life (mouse). The class given is in vitro ADME. To be noted: pH 7.4; mouse liver microsomes 0.5 mg/mL, 1 μM compound, 37° C.; read-out: Liver microsome T1/2 Mouse.
Description: as §1, §2, §3, §4, §5

Series [3] in a line: Microsomal stability assay, liver microsome half-life (monkey). To be noted: pH 7.4; monkey liver microsomes 0.5 mg/mL, 1 μM compound, 37° C.; read-out: Liver microsome T1/2 Monkey. It counts as in vitro ADME.
Description: as §1, §2, §3, §4
(§6) The extent of metabolism is calculated as the disappearance of the test compound, compared to the 0-min time incubation. Initial rates are calculated for the compound concentration and used to determine half-life (t½).

Series [4] is described as follows: Microsomal stability assay, liver microsome half-life (rat). The class given is in vitro ADME. To be noted: pH 7.4; rat liver microsomes 0.5 mg/mL, 1 μM compound, 37° C.; read-out: Liver microsome T1/2 Rat.
Description: as §1, §2, §3, §4, §5

A short description of series [5]: Microsomal stability assay, liver microsome half-life (dog). The class given is in vitro ADME. To be noted: pH 7.4; dog liver microsomes 0.5 mg/mL, 1 μM compound, 37° C.; read-out: Liver microsome T1/2 Dog.
Description: as §1, §2, §3, §4, §6

As usually defined, the IC50 is the concentration at which inhibition is half-maximal. As to `CS(=O)(=O)Nc1nccc(COCCc2cc(Cl)c(OCCCl)c(C#N)c2)n1` [Compound A5], the half-life at 1 μM in series [1] is 0.93 h. Moreover, the half-inhibitory concentration (IC50) at androgen receptor (AR) was > 2000 nM.

In the case of `CS(=O)(=O)Nc1nccc(OC2CCN(C(=O)c3cc(Cl)c(OCCCl)c(C#N)c3)CC2)n1` [Compound A6, N-(4-((1-(3-chloro-4-(2-chloroethoxy)-5-cyanobenzoyl)piperidin-4-yl)oxy)pyrimidin-2-yl)methanesulfonamide], the half-life at 1 μM in series [1] was > 2 h. The IC50 at androgen receptor (AR) is > 2000 nM. `CS(=O)(=O)Nc1nccc(OCC23CC(C(=O)c4ccc(OCCCl)cc4)(C2)C3)n1` [Compound A7]: in series [1], the half-life at 1 μM stood at 1.4 h. Besides, at androgen receptor (AR), the concentration for half-maximal inhibition (IC50) was > 2000 nM. Turning to `CS(=O)(=O)Nc1nccc(OCC23CC(C(=O)c4cc(Cl)c(OCCCl)c(C#N)c4)(C2)C3)n1` [Compound A8], in series [1], the half-life at 1 μM is 0.161 h. Also, the IC50 at androgen receptor (AR) was > 2000 nM. With `CS(=O)(=O)Nc1nccc(COc2ccc3c(c2)CCC=C3c2cc(Cl)c(OCCCl)c(C#N)c2)n1` [Compound A32, N-(4-(((5-(3-chloro-4-(2-chloroethoxy)-5-cyanophenyl)-7,8-dihydronaphthalen-2-yl)oxy)methyl)pyrimidin-2-yl)methanesulfonamide], the half-life at 1 μM in series [1] is 1.14 h; in series [2] it was > 2 h. Besides, the 50% inhibitory concentration (IC50) at androgen receptor (AR) was 500 to 2000 nM. `CS(=O)(=O)Nc1nccc(COc2ccc3c(c2)CCCC3c2cc(Cl)c(OCCCl)c(C#N)c2)n1` (centres unmarked) [Compound A33, N-(4-(((5-(3-chloro-4-(2-chloroethoxy)-5-cyanophenyl)-5,6,7,8-tetrahydronaphthalen-2-yl)oxy)methyl)pyrimidin-2-yl)methanesulfonamide]: the half-life at 1 μM in series [1] and in series [2] was > 2 h throughout. The half-maximal inhibitory concentration (IC50) on androgen receptor (AR) fell in the range of 500 to 2000 nM. Take `CS(=O)(=O)Nc1nccc(COc2ccc3c(-c4cc(Cl)c(OCCCl)c(C#N)c4)cccc3c2)n1` [Compound A34, N-(4-(((5-(3-chloro-4-(2-chloroethoxy)-5-cyanophenyl)naphthalen-2-yl)oxy)methyl)pyrimidin-2-yl)methanesulfonamide]: the half-life at 1 μM in series [1] and in series [2] was > 2 h throughout. Besides, the IC50 on androgen receptor (AR) lay within 500 to 2000 nM. In the case of `CS(=O)(=O)Nc1nccc(COc2nnc(-c3cc(Cl)c(OCCCl)c(C#N)c3)o2)n1` [Compound A37, N-(4-(((5-(3-chloro-4-(2-chloroethoxy)-5-cyanophenyl)-1,3,4-oxadiazol-2-yl)oxy)methyl)pyrimidin-2-yl)methanesulfonamide], in series [1], the half-life at 1 μM was > 2 h. In addition, the IC50 on androgen receptor (AR) was 500 to 2000 nM. With `CC(C)(c1ccc(OCc2ccnc(NS(C)(=O)=O)n2)cc1)c1cc(Cl)c2c(c1)OCCO2` [Compound A38], the half-life at 1 μM in series [1] is > 2 h. The half-maximal inhibitory concentration (IC50) on androgen receptor (AR) was > 2000 nM. As for `CS(=O)(=O)Nc1nccc(COc2nnc(-c3cc(Cl)c(OCCCl)c(C#N)c3)s2)n1` [Compound A41], the half-life at 1 μM in series [1] and in series [2] was > 2 h in each case. Also, the IC50 on androgen receptor (AR) is > 2000 nM. Turning to `CC(C)(c1ccc(OCC23CCC(NS(C)(=O)=O)(C2)C3)cc1)c1cc(Cl)c(OCCCl)c(C#N)c1` [Compound A271], the IC50 on androgen receptor (AR) lay in the range of 500 to 2000 nM.

Turning to `CC(C)(c1ccc(OCC23CCC(NS(C)(=O)=O)(CC2)C3)cc1)c1cc(Cl)c(OCCCl)c(C#N)c1` [Compound A272], at androgen receptor (AR), the IC50 lay in the range of 500 to 2000 nM. Same read-out and setting: for `CC(C)(c1ccc(OCC23CCC(NS(C)(=O)=O)(CC2)CC3)cc1)c1cc(Cl)c(OCCCl)c(C#N)c1` [Compound A273] the value was 500 to 2000 nM; for `CC(C)(c1ccc(-c2ccc3sc(NS(C)(=O)=O)nc3c2)cc1)c1cc(Cl)c(OCCCl)c(C#N)c1` [Compound A275], 500 to 2000 nM; for `COc1c(Cl)cc(C2CCc3cc(-c4ccc5nc(NS(C)(=O)=O)cnc5c4)ccc32)cc1C#N` (centres unmarked) [Compound A276], 500 to 2000 nM. Take `CC(C)(c1ccc(OCC23CC(CNS(C)(=O)=O)(C2)C3)cc1)c1cc(Cl)c(OCCCl)c(C#N)c1` [Compound A277]: on androgen receptor (AR), the IC50 is < 500 nM. In the case of `CC(C)(c1ccc(-c2ccc3c(NS(C)(=O)=O)nccc3n2)cc1)c1cc(Cl)c(OCCCl)c(C#N)c1` [Compound A278], the IC50 on androgen receptor (AR) lay within 500 to 2000 nM. `CC(C)(c1ccc(-c2cnc3nc(NS(C)(=O)=O)ccc3n2)cc1)c1cc(Cl)c(OCCCl)c(C#N)c1` [Compound A279]: at androgen receptor (AR), the IC50 is 500 to 2000 nM. As to `CC(C)(c1ccc(-c2cnc3c(NS(C)(=O)=O)nccc3n2)cc1)c1cc(Cl)c(OCCCl)c(C#N)c1` [Compound A280], the IC50 at androgen receptor (AR) was in the range of 500 to 2000 nM. The same measure, in the same setting: the value for `CC(C)(c1ccc(-c2ccc3oc(NS(C)(=O)=O)nc3n2)cc1)c1cc(Cl)c(OCCCl)c(C#N)c1` [Compound A281] was > 2000 nM; that for `CC(C)(c1ccc(-c2ccc3nc(NS(C)(=O)=O)oc3n2)cc1)c1cc(Cl)c(OCCCl)c(C#N)c1` [Compound A282] was > 2000 nM. In the case of `CC(C)(c1ccc(OCc2ccnc(NS(C)(=O)=O)n2)cc1)c1cc(Cl)c(N2CCOCC2)c(C#N)c1` [Compound A283], at androgen receptor (AR), the half-maximal inhibitory concentration (IC50) was in the range of 500 to 2000 nM. For `CC(C)(c1ccc(OCC23CCN(S(C)(=O)=O)C(C2)C3)cc1)c1cc(Cl)c(OCCCl)c(C#N)c1` [Compound A284], the IC50 at androgen receptor (AR) lay within 500 to 2000 nM. For the compound `CC(C)(c1ccc(OCC23CC(C2)N(S(C)(=O)=O)C3)cc1)c1cc(Cl)c(OCCCl)c(C#N)c1` [Compound A285], the IC50 on androgen receptor (AR) fell in the range of 500 to 2000 nM. As to `CNC(=O)c1ccc(N2C(=S)N(c3ccc(C#N)c(C(F)(F)F)c3)C(=O)C2(C)C)cc1F` [Enzalutamide, enzalutamide, reference compound], the half-life at 1 μM in series [3], in series [4], in series [1], in series [2] and in series [5] was > 2 h in each case. With `CC(C)(c1ccc(OC[C@H](O)CNS(C)(=O)=O)cc1)c1cc(Cl)c(OC[C@H](O)CCl)c(Cl)c1` [X, reference compound], the half-life at 1 μM in series [1] is > 2 h.

These data come from patent publication US20220380378A1 (ESSA Pharma, Inc., priority 2021, published 2022).
